# What was measured:
# [1] = tested on: mouse model of stroke induced by middle cerebral artery occlusion (MCAO); experiment: Beam-walking test (Example 1); format: in vivo, ICR mice; settings: 10 mg/kg i.v. Bid from 30 min after infarction
# Description: (§1) The administration of the respective treatments was started 30 minutes after the MCAO procedure of the mice.
# (§2) Seventy-two (72) ICR mice received behavioral training after adaptive feeding period and before the operation to establish stroke models. The behavioral training included beam-walking and rotarod test. The experimental mice were then randomly divided into 6 groups according to the values of the body weight, with 12 mice in each test group as described in Table 1.
# (§3) The mice were fasted overnight before modeling and were anesthetized with isoflurane. Right middle cerebral artery occlusion (MCAO) was induced in mice using the intraluminal filament technique to mimic focal cerebral ischemic stroke. After 1 hr, reperfusion was allowed by removing the occlusion. During the operation, a white light was used to maintain the mouse rectal temperature between 36.5° C.-37.0° C.
# (§4) Administration of each treatment was performed 0.5 h after the infarction. The neurological function score was evaluated at 24 hrs and 48 hrs after reperfusion, as was assessed by beam-walking, grip strength, and rotarod tests. At 48 h after reperfusion, the whole brain tissue of all rats was harvested to assess the cerebral infarct area by TTC staining, as well as to measure brain volume and brain water content, two indicators of acute cerebral edema.
# [2] = tested on: mouse model of stroke induced by middle cerebral artery occlusion (MCAO); experiment: Rotarod test, time of treatment (Example 2); format: in vivo, ICR mice
# Description: (§5) The administration of 10 mg/kg butylphthalide and 50 mg/kg ALMB-0166 was started 30 minutes, 2 hours, or 6 hours after the MCAO procedure of the mice. Ninety-six (96) ICR mice received behavioral training after adaptive feeding period and before the operation to establish stroke models. The behavioral training included beam-walking and rotarod test. The experimental mice were then randomly divided into 8 groups according to the values of the body weight, with 12 mice in each test group as described in Table 1. The mice were fasted overnight before modeling and were anesthetized with isoflurane. Right middle cerebral artery occlusion (MCAO) was induced in mice using the intraluminal filament technique to mimic focal cerebral ischemic stroke. After 1 hr, reperfusion was allowed by removing the occlusion. Administration of each treatment was performed 0.5 hrs, 2 hrs, or 6 hrs after the infarction. The neurological function score was evaluated at 24 hrs and 48 hrs after reperfusion, as was assessed by beam-walking, grip strength, and rotarod tests. At 48 hrs after reperfusion, the whole brain tissue of all rats was harvested to assess the cerebral infarct area by TTC staining, as well as to measure brain volume and brain water content, two indicators of acute cerebral edema.
# [3] = tested on: rat model of stroke induced by middle cerebral artery occlusion (MCAO); experiment: Cerebral infarct volume by TTC staining (Example 3); format: in vivo, SD rats; settings: 10 mg/kg (table label) i.v. Bid from 30 min after infarction, 48 h after reperfusion
# Description: (§6) The administration of the respective treatments was started 30 minutes after the MCAO procedure of the rats.
# (§7) Seventy-two (72) SD rats received behavioral training after adaptive feeding period and before the operation to establish stroke models. The behavioral training included beam-walking, grip and rotarod tests. The experimental rats were then randomly divided into 6 groups according to the body weight, with 12 rats in each test group as described in Table 15.
# (§8) The rats were fasted overnight before modeling and were anesthetized with isoflurane. Right middle cerebral artery occlusion (MCAO) was induced in each rat using the intraluminal filament technique to mimic focal cerebral ischemic stroke. After 2 hrs, reperfusion was allowed by removing the occlusion.
# (§9) Administration of each treatment was performed 0.5 h after the infarction. The rats were scored by the Longa method at 24-hours post-procedure. The neurological function was evaluated at 24-hr and 48-hr after reperfusion, and was assessed by beam-walking, grip strength, and rotarod tests. At 48 h after reperfusion, the whole brain tissue of all rats was harvested to assess the cerebral infarct area by TTC staining, as well as to measure brain volume and brain water content, two indicators of acute cerebral edema.
# [4] = tested on: mouse model of stroke induced by middle cerebral artery occlusion (MCAO); experiment: Rotarod test (Example 1); format: in vivo, ICR mice; settings: 10 mg/kg i.v. Bid from 30 min after infarction
# Description: as §1, §2, §3, §4
# [5] = tested on: rat model of stroke induced by middle cerebral artery occlusion (MCAO); experiment: Grip strength (Example 3); format: in vivo, SD rats; settings: 10 mg/kg (table label) i.v. Bid from 30 min after infarction
# Description: as §6, §7, §8, §9
# [6] = tested on: mouse model of stroke induced by middle cerebral artery occlusion (MCAO); experiment: Brain water content, time of treatment (Example 2); format: in vivo, ICR mice; settings: 48 h after reperfusion
# Description: as §5
# [7] = tested on: rat model of stroke induced by middle cerebral artery occlusion (MCAO); experiment: Beam-walking test, dosing regimen (Example 4); format: in vivo, SD rats; settings: 10 mg/kg (table label) i.v. Bid from 30 min after infarction
# Description: The first administration of the respective treatments was started 30 minutes (Day 1 of study) after the MCAO procedure of the rats. For the butylphthalide group, subsequent doses were administered every day after for 14 days. For the ALMB-0166 test groups, a second dose of the antibody was administered at Day 4 post-stroke (Day 4 of the study). Thirty-six (36) SD rats received behavioral training after adaptive feeding period and before the operation to establish stroke models. The behavioral training included beam-walking, grip and rotarod tests. The experimental rats were then randomly divided into 6 groups according to the body weight, with 6 rats in each test group as described in Table 15. The rats were fasted overnight before modeling and were anesthetized with isoflurane. Right middle cerebral artery occlusion (MCAO) was induced in each rat using the intraluminal filament technique to mimic focal cerebral ischemic stroke. After 2 hrs, reperfusion was allowed by removing the occlusion. Administration of butylphthalide was performed 0.5 hrs after the infarction, and every day after the operation (14 days). Administration of ALMB-0166 and the vehicle treatment was performed at 0.5 hrs and at Day 4 after the operation. The body weight of rats was recorded before the operation (Day 0 of study) and on Days 2, 4, 7, and 11 after the procedure. The rats were scored by the Longa method at Day 1 (24-hours) post-procedure. The neurological function was evaluated at Days 1, 2, 4, 7, and 14 after the procedure, and was assessed by beam-walking, grip strength, and rotarod tests. At Day 14 after reperfusion, the whole brain tissue of all rats was harvested to assess the cerebral infarct area by TTC staining. The total infarct volume was determined, and the infarct volume ratio was calculated by dividing the total infarct volume by the whole brain volume. For calculating the infarct volume rate, the difference in infarct volume ratio between the model group and the corresponding administration group was divided by the infarct volume ratio of the model group.
# [8] = 10 mg/kg i.v. once 0.5 hr after infarction
# [9] = 10 mg/kg i.v. once 2 hr after infarction
# [10] = 10 mg/kg i.v. once 6 hr after infarction
structure (smiles),measurement,setting,value
CCCCC1OC(=O)c2ccccc21 (stereo not shown) [Butylphthalide],Beam-walking time,[1]; 24 h,41.27 ± 21.52 s
same,Beam-walking time,[1]; 48 h,41.92 ± 22.83 s
same,"Rotarod test score, Time","[2]; 10 mg/kg i.v. once 0.5 hr after infarction, 24 h",151.83 s
same,"Rotarod test score, Time","[2]; 10 mg/kg i.v. once 0.5 hr after infarction, 48 h",193.25 s
same,"Rotarod test score, Time","[2]; 10 mg/kg i.v. once 2 hr after infarction, 24 h",124.67 s
same,"Rotarod test score, Time","[2]; 10 mg/kg i.v. once 2 hr after infarction, 48 h",171.67 s
same,"Rotarod test score, Time","[2]; 10 mg/kg i.v. once 6 hr after infarction, 24 h",121.42 s
same,"Rotarod test score, Time","[2]; 10 mg/kg i.v. once 6 hr after infarction, 48 h",98.00 s
same,Cerebral Infarction Volume,[3],22.41%
same,Improvement rate of infarction,[3]; vs model,30.84%
same,"Rotarod test score, Time",[4]; 24 h,216.67 ± 91.22 s
same,"Rotarod test score, Time",[4]; 48 h,146.50 ± 137.21 s
same,Grip Strength,[5]; 24 h,404.73 g
same,Grip Strength,[5]; 48 h,419.93 g
same,Brain water content,[6]; [8],329.00 mg
same,Brain water ratio,[6]; [8],81.23%
same,Brain water content,[6]; [9],326.33 mg
same,Brain water ratio,[6]; [9],81.25%
same,Brain water content,[6]; [10],342.83 mg
same,Brain water ratio,[6]; [10],82.36%
same,Beam-walking time,[7]; Day 0,23.13 s
same,Beam-walking time,[7]; Day 2,28.31 s
same,Beam-walking time,[7]; Day 4,43.23 s
same,Beam-walking time,[7]; Day 7,35.65 s
same,Beam-walking time,[7]; Day 14,16.01 s

# — US20250059264A1, “METHOD OF TREATING STROKE” (AlaMab Therapeutics, Inc., priority 2023, published 2025)
